Calls of active or inactive are those of the source. The calls are words filed in the database; no cut-off is given here.
Tests used:
NCI-H522 = assay: Cytotoxicity against Homo sapiens (human) NCI-H522 cells at 10 uM after 48 hr by coulter counter analysis; type: functional, cell-based
MCF7 = assay: Cytotoxicity against Homo sapiens (human) MCF7 cells assessed as growth inhibition at 10 uM after 48 hr by coulter counter analysis; type: functional; conditions: MCF7, 48 h, read-out: GI
PC-3 = assay: Cytotoxicity against Homo sapiens (human) PC3 cells assessed as growth inhibition at 10 uM after 48 hr by coulter counter analysis; type: functional; conditions: PC-3, 48 h, read-out: GI
SK-OV-3 = assay: Cytotoxicity against Homo sapiens (human) SKOV3 cells assessed as growth inhibition at 10 uM after 48 hr by coulter counter analysis; type: functional; conditions: SK-OV-3, 48 h, read-out: GI
OVCAR-3 = assay: Cytotoxicity against Homo sapiens (human) OVCAR3 cells assessed as growth inhibition at 10 uM after 48 hr by coulter counter analysis; type: functional; conditions: OVCAR-3, 48 h, read-out: GI
UO-31 = assay: Cytotoxicity against Homo sapiens (human) UO31 cells assessed as growth inhibition at 10 uM after 48 hr by coulter counter analysis; type: functional; conditions: UO-31, 48 h, read-out: GI
NCI-H460 = assay: Cytotoxicity against Homo sapiens (human) NCI-H460 cells assessed as growth inhibition at 10 uM after 48 hr by coulter counter analysis; type: functional; conditions: NCI-H460, 48 h, read-out: GI
COLO 205 = assay: Cytotoxicity against Homo sapiens (human) COLO205 cells assessed as growth inhibition at 10 uM after 48 hr by coulter counter analysis; type: functional; conditions: COLO 205, 48 h, read-out: GI
UACC-257 = assay: Cytotoxicity against Homo sapiens (human) UACC257 cells assessed as growth inhibition at 10 uM after 48 hr by coulter counter analysis; type: functional; conditions: UACC-257, 48 h, read-out: GI
T47D = assay: Cytotoxicity against Homo sapiens (human) T47D cells assessed as growth inhibition at 10 uM after 48 hr by coulter counter analysis; type: functional; conditions: read-out: GI
MOLT-4 = assay: Cytotoxicity against Homo sapiens (human) MOLT4 cells assessed as growth inhibition at 10 uM after 48 hr by coulter counter analysis; type: functional; conditions: MOLT-4, 48 h, read-out: GI
Hs-578T = assay: Cytotoxicity against Homo sapiens (human) Hs578T cells assessed as growth inhibition at 10 uM after 48 hr by coulter counter analysis; type: functional; conditions: read-out: GI
IGROV-1 = assay: Cytotoxicity against Homo sapiens (human) IGROV1 cells assessed as growth inhibition at 10 uM after 48 hr by coulter counter analysis; type: functional; conditions: IGROV-1, 48 h, read-out: GI
DU-145 = assay: Cytotoxicity against Homo sapiens (human) DU145 cells assessed as growth inhibition at 10 uM after 48 hr by coulter counter analysis; type: functional; conditions: DU-145, 48 h, read-out: GI
BT-549 = assay: Cytotoxicity against Homo sapiens (human) BT549 cells assessed as growth inhibition at 10 uM after 48 hr by coulter counter analysis; type: functional; conditions: BT-549, 48 h, read-out: GI
NCI-H226 = assay: Cytotoxicity against Homo sapiens (human) NCI-H226 cells assessed as growth inhibition at 10 uM after 48 hr by coulter counter analysis; type: functional; conditions: NCI-H226, 48 h, read-out: GI
A498 = assay: Cytotoxicity against Homo sapiens (human) A498 cells assessed as growth inhibition at 10 uM after 48 hr by coulter counter analysis; type: functional; conditions: A498, 48 h, read-out: GI
CCRF-CEM = assay: Cytotoxicity against Homo sapiens (human) CCRF-CEM cells assessed as growth inhibition at 10 uM after 48 hr by coulter counter analysis; type: functional; conditions: read-out: GI
786-0 = assay: Cytotoxicity against Homo sapiens (human) 786-0 cells assessed as growth inhibition at 10 uM after 48 hr by coulter counter analysis; type: functional; conditions: 786-0, 48 h, read-out: GI
SNB-19 = assay: Cytotoxicity against Homo sapiens (human) SNB19 cells assessed as growth inhibition at 10 uM after 48 hr by coulter counter analysis; type: functional; conditions: SNB-19, 48 h, read-out: GI
HL-60(TB) = assay: Cytotoxicity against Homo sapiens (human) HL-60(TB) cells assessed as growth inhibition at 10 uM after 48 hr by coulter counter analysis; type: functional; conditions: HL-60, 48 h, read-out: GI

Q: `CCn1c(S)nnc1CSc1nc2ccccc2c(=O)n1CCc1ccccc1` was tested. Which Activity (NCI-H522) did it give?
A: Active

Q: What about the inhibition of growth at 10 µM (MCF7) of the same compound?
A: 16%

Q: What about the inhibition of growth at 10 µM (PC-3) of the same compound?
A: 17%

Q: And the inhibition of growth at 10 µM (SK-OV-3)?
A: < 10%

Q: What about the inhibition of growth at 10 µM (OVCAR-3) of the same compound?
A: < 10%

Q: What about the inhibition of growth at 10 µM (UO-31) of the same compound?
A: 24%

Q: What about the inhibition of growth at 10 µM (NCI-H460) of the same compound?
A: 31%

Q: What about the inhibition of growth at 10 µM (COLO 205) of the same compound?
A: < 10%

Q: What about the inhibition of growth at 10 µM (UACC-257) of the same compound?
A: 12%

Q: What about the inhibition of growth at 10 µM (T47D) of the same compound?
A: 27%

Q: What about the inhibition of growth at 10 µM (MOLT-4) of the same compound?
A: 29%

Q: What about the inhibition of growth at 10 µM (Hs-578T) of the same compound?
A: < 10%

Q: And the inhibition of growth at 10 µM (IGROV-1)?
A: < 10%

Q: And the inhibition of growth at 10 µM (DU-145)?
A: < 10%

Q: And the inhibition of growth at 10 µM (BT-549)?
A: 28%

Q: And the inhibition of growth at 10 µM (NCI-H226)?
A: 35%

Q: And the inhibition of growth at 10 µM (A498)?
A: < 10%

Q: And the inhibition of growth at 10 µM (CCRF-CEM)?
A: 27%

Q: And the inhibition of growth at 10 µM (786-0)?
A: 19%

Q: What about the inhibition of growth at 10 µM (SNB-19) of the same compound?
A: < 10%

Q: And the inhibition of growth at 10 µM (HL-60(TB))?
A: 30%

Source: ChEMBL document CHEMBL3044826, “Design, synthesis and biological evaluation of some novel substituted 2-mercapto-3-phenethylquinazolines as antitumor agents” (2013)
